Measured values reported in patent publication US9034583B2, “Rapid enzyme-linked immunosorbent assay for detection and identification of pathogens and determination of antimicrobial susceptibility” (priority 2013, dated 2015).

Columns and labels:
[1] = tested on: penicillin-resistant (Pen-R) Strain 31426; test: Simultaneous identification of N. gonorrheae and antimicrobial susceptibility (Example 4); assay type: cell-based
Method: (§1) Two strains of N. gonorrheae, penicillin-sensitive (Pen-S) Strain 1279 and penicillin-resistant (Pen-R) Strain 31426, were cultured overnight on Gc agar. A 0.5 McFarland was prepared immediately before wells were to be inoculated, and the two strains were each diluted to a concentration of 10^8 in FB. The bacteria-containing FB for each strain was split into four tubes, in which a different concentration of penicillin was added to each of the tubes of the two strains: 2.0 μg/ml, 1.0 μg/ml, 0.5 μg/ml, and buffer alone as a negative control. Microtiter wells were coated with 100 μl of a 1:200 dilution of rabbit polyclonal antibody directed against N. gonorrheae, and allowed to stand at 4 degrees Celsius overnight. […] Following blocking, wells were again washed three times with PBS. At this stage, the plates were either used immediately, or stored at 4 degrees Celsius for later use. Upon proceeding with the assay, 100 μl of the 10^8 dilution of the two strains of N. gonorrheae were placed in individual wells. The wells were shaken gently on a plate stirrer at room temperature for 15 minutes. Next, wells were washed three times with PBS, and 100 μl of an HRP-conjugated rabbit polyclonal antibody (1:50 dilution in PBS) directed against N. gonorrheae was added to the wells and incubated at room temperature for 5 minutes. Wells were washed three times with PBS, and then bound antibody was detected by the addition of 100 μl of TMB substrate. OD450) was read after allowing the plate to stand for three minutes at room temperature and stopping the reaction with stop solution (KPL). Negative controls consisted of the same preceding steps, but the addition of bacteria was omitted.

[2] = tested on: penicillin-sensitive (Pen-S) Strain 1279; test: as above; assay type: cell-based; settings: penicillin 0.5, 1.0, 2.0 μg/ml, 10^8 bacteria
Method: as §1

[3] = tested on: Enterococcus faecalis (Penicillin Sensitive); test: N-Assay antibiotic susceptibility, Enterococcus with Penicillin G (Example 6); assay type: cell-based; settings: for Detection of Enterococcus faecalis: With Penicillin Present, 8 μg/ml Penicillin G, 18 hour incubation in nutrient broth
Method: (§2) Prior to performing the N-Assay, bacterial cultures were prepared as follows in order to establish the sensitivity of the assay. An inoculum was taken from a stock culture, and plated onto solid phase nutrient agar and incubated overnight at 37° C. E. faecalis, E. faecium (Vancomycin-Resistant Enterococcus, or VRE) and GBS isolates were plated onto colistin and naladixic acid agar, and N. gonorrheae was plated onto chocolate agar. The gonorrheal culture was performed in a CO2 incubator. Following an overnight culture, an isolated colony was selected of each bacterial species, and the isolated colonies were sub-cultured on solid phase for an additional 24 hours to ensure adequate viability was maintained. Following this, isolated cultures were used to inoculate nutrient broth (LIM broth was used for GBS, Fastidious broth with isovitalex 2% v/v for N. gonorrheae, and BHI broth was used for E. faecalis, E. faecium). A 0.5 McFarland was prepared for each bacterial species, and these were then diluted serially down to 10^−3 in nutrient broth and the OD630 immediately was determined. For each dilution, aliquots were obtained and agar plates were inoculated. The agar plates then were incubated at 37° C. for 24 hours, and the number of colony forming units (CFU) was determined for each bacterial species at each dilution. This was used to generate a standard curve, so that future dilutions when prepared could be developed with known concentrations of bacteria. […] A similar curve was generated for each bacteria studied.
(§3) Antibodies against selected bacteria were diluted 1:100 in coating buffer (carbonate bicarbonate buffer), and 100 μl were placed in microtiter wells and allowed to stand overnight at 4° C. The following day, wells were washed with PBS TWEEN 20 three times, and then blocked with 200 μl of STARTINGBLOCK for 30 minutes at room temperature. Following blocking, wells were washed three times with PBS TWEEN 20, and plates were either stored at 4° C. with a sterile cover placed over them for later use, or used immediately.
(§4) To determine antibiotic susceptibility of the four strains of bacteria, a 0.5 Mcfarland was prepared in nutrient broth and serially dilutions were established. The dilutions were incubated overnight for 18-24 hours at 37° C. (in a CO2 incubator for N. gonorrheae) with specific antibiotics. Parallel dilutions were prepared of each bacterium, in the presence and absence of specific antibiotics, as follows: (1) for E. faecalis, E. faecium, Penicillin G was added in varying concentrations, and as these concentrations were held constant, the bacterial concentration was diluted out; (2) the same parameters were set for GBS with the antibiotic clindamycin; and (3) the same parameters were set for N. gonorrheae with the antibiotic ceftriaxone.
(§5) Following overnight incubation in the presence or absence of the selected antibiotics, 100 μl of the bacterial suspensions were placed into previously coated wells, and plates were allowed to stand at room temperature for 15 minutes. After washing with PBS TWEEN 20 three times, 100 μl of HRP-conjugated antibody directed against the specific bacteria was added in a 1:100 dilution, and allowed to stand at room temperature for 7 minutes. Wells were washed three times with PBS TWEEN 20, and bound antibody was detected by the addition of 100 μl of TMB substrate. OD450) was read after allowing the plate to stand for 3 minutes at room temperature and stopping the reaction with stop solution (KPL).
(§6) After adding stop solution, wells were read at OD450. […] Alternatively, wells were determined to be positive if they turned yellow after addition of the stop solution, if a plate reader was not available.
(§7) These studies were repeated for E. faecalis, E. faecium and N. gonorrheae. For E. faecalis and E. faecium, Penicillin G was used to distinguish between E. faecalis and E. faecium, as E. faecium is resistant to Penicillin G. For N. gonorrheae, the antibiotic used was ceftriaxone.

[4] = tested on: Enterococcus faecium (Penicillin Resistant, i.e., VRE); test: as above; assay type: cell-based; settings: for Detection of Enterococcus faecium: With Penicillin Present, 8 μg/ml Penicillin G, 18 hour incubation in nutrient broth
Method: as §2, §3, §4, §5, §6, §7

[5] = tested on: Clindamycin Resistant Strain (GBS 11276); test: N-Assay antibiotic susceptibility, GBS with Clindamycin (Example 6); assay type: cell-based, Group B Streptococcus (GBS); settings: for Detection of GBS: With Clindamycin Present, 4 μg/ml, 18 hour incubation in nutrient broth, resistant strain GBS 11276
Method: as §2, §3, §4
as §5, with “After washing with PBS TWEEN 20 three times, 100 μl of HRP-conjugated antibody directed against the specific bacteria was added in a 1:100 dilution, and allowed to stand at room temperature for 7 minutes.” left out
After adding stop solution, wells were read at OD450. […] Alternatively, wells were determined to be positive if they turned yellow after addition of the stop solution, if a plate reader was not available. […]

[6] = tested on: N. gonorrheae (Ceftriaxone Resistant); test: N-Assay antibiotic susceptibility, N. gonorrheae with Ceftriaxone (Example 6); assay type: cell-based, Neisseria gonorrheae; settings: With Ceftriaxone Present, 2 μg/ml
Method: as §2, §3, §4, §5, §6, §7

[7] = tested on: N. gonorrheae (Ceftriaxone Sensitive); test: as above; assay type: cell-based, Neisseria gonorrheae; settings: summary of Table 3
Method: as §2, §3, §4, §5, §6, §7

SMILES: CC1(C)S[C@@H]2[C@H](NC(=O)Cc3ccccc3)C(=O)N2[C@H]1C(=O)O [Penicillin G, penicillin G]
- OD450 signal of bound N. gonorrheae between concentrations of penicillin ([1]; penicillin 0.5, 1.0, 2.0 μg/ml, 10^8 bacteria, Pen-R Strain 31426): did not significantly vary
- growth by turbidity at OD600 ([1]; wells containing Pen-R strain 31426 with penicillin): increasing turbidity
- OD450 signal of bound N. gonorrheae with increasing concentrations of penicillin [2]: progressively decreasing positive signal
- N-Assay result of wells containing E. faecalis ([3]; Table 2, with Penicillin G): negative
- Detection of Enterococcus faecalis ([3]; 100,000 CFU/ml): +
- Detection of Enterococcus faecalis ([3]; 1,000,000 CFU/ml): +
- Detection of Enterococcus faecalis ([3]; 10,000,000 CFU/ml): +
- lowest dilution at which E. faecium was positive ([4]; Table 2, with Penicillin G): 100 bacteria/ml
- Detection of Enterococcus faecium ([4]; 1 CFU/ml): +
- Detection of Enterococcus faecium ([4]; 10 CFU/ml): +
- Detection of Enterococcus faecium ([4]; 100 CFU/ml): +
- Detection of Enterococcus faecium ([4]; 1,000 CFU/ml): +
- Detection of Enterococcus faecium ([4]; 10,000 CFU/ml): +
- Detection of Enterococcus faecium ([4]; 100,000 CFU/ml): +
- Detection of Enterococcus faecium ([4]; 1,000,000 CFU/ml): +
- Detection of Enterococcus faecium ([4]; 10,000,000 CFU/ml): +

SMILES: CCC[C@@H]1C[C@@H](C(=O)N[C@@H]([C@H]2O[C@H](SC)[C@H](O)[C@@H](O)[C@H]2O)[C@H](C)Cl)N(C)C1 [Clindamycin, clindamycin]
- Detection of GBS ([5]; 10 CFU/ml): +
- Detection of GBS ([5]; 100 CFU/ml): +
- Detection of GBS ([5]; 1,000 CFU/ml): +
- Detection of GBS ([5]; 10,000 CFU/ml): +
- lowest dilution at which GBS resistant to Clindamycin was positive ([5]; summary of Table 1, incubated 24 hours at 37° C. with Clindamycin): 100 bacteria/ml

SMILES: CO/N=C(\C(=O)N[C@@H]1C(=O)N2C(C(=O)O)=C(CSc3nc(=O)c(=O)[nH]n3C)CS[C@H]12)c1csc(N)n1 [Ceftriaxone, ceftriaxone]
- Detection of Neisseria gonorrheae ([6]; 18 hour incubation in nutrient broth, 0.1 CFU/ml): +
- Detection of Neisseria gonorrheae ([6]; 18 hour incubation in nutrient broth, 1 CFU/ml): +
- Detection of Neisseria gonorrheae ([6]; 18 hour incubation in nutrient broth, 10 CFU/ml): +
- Detection of Neisseria gonorrheae ([6]; 18 hour incubation in nutrient broth, 100 CFU/ml): +
- Detection of Neisseria gonorrheae ([6]; 18 hour incubation in nutrient broth, 1,000 CFU/ml): +
- Detection of Neisseria gonorrheae ([6]; 18 hour incubation in nutrient broth, 10,000 CFU/ml): +
- N-Assay result of wells containing N. gonorrheae [7]: negative
